Laboratory results from ChEMBL document CHEMBL5725409, “Small molecule myristate inhibitors of Bcr-abl and methods of use” (2017).

Assay: Kinase Assay: In vitro kinase assays were carried out by using recombinant murine c-abl containing SH3, SH2 and kinase domains (residues 46-531) and full length immunoprecipitated Bcr-abl. Recombinant abl was expressed in Sf9 insect cells and purified as described above. Bcr-abl immune complexes were obtained with Ab-3 anti-abl monoclonal antibody (Oncogene Science) from Ba/F3.p210 lysates as previously described. 1 μg of recombinant abl or immunoprecipitated Bcr-abl (from 3×10^6 cells) were incubated with various concentrations of test compound (0.1, 1 and 10 M) in kinase buffer (50 mM Tris-HCl pH 7.5, 10 mM MgCl2, […], 1 mM DTT, 0.015% Brij 35), 100 μM ATP and 1 μCi [γ-32P]-ATP for 30 min at 30° C. (Calbiochem buffer and protocol). The reaction was stopped by addition of Laemmli buffer and the proteins were resolved by SDS-PAGE in a 4-20% gel. The phosphoproteins were visualized by autoradiography and the autophosphorylation quantitated using a phosphoimager (STORM, Molecular Devices).

Compared with `COc1cc(-c2cc(Nc3ccc(OC(F)(F)F)cc3)ncn2)co1`, `O=C(NCCN1CCOCC1)c1cc2c(Nc3ccc(OC(F)(F)F)cc3)ncnc2s1` is higher in IC50: 0.94 µM for the first, over 10 µM for the second. The first is the more potent here.

With `O=C(NC(=O)c1cc2c(Nc3ccc(OC(F)(F)F)cc3)ncnc2s1)c1cccc(C(F)(F)F)c1` the IC50 was 1.44 µM.
